# Test results taken from the supplement of paper PMC10307832.
# Assays:
# Test in all cases: relative viability (nuclei count vs DMSO), 5 days (fraction); higher = more cells survive
# [1] = compound: Cc1ccc(-n2nc(C(C)(C)C)cc2NC(=O)Nc2ccc(OCCN3CCOCC3)c3ccccc23)cc1 [Doramapimod] + NC(=O)Nc1cc(-c2cccc(F)c2)sc1C(=O)N[C@H]1CCCNC1 [AZD7762] (partner 0.2 µM)
# How it was run: (§1)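 Medians of duplicate plates are given as relative viability. That measure is the nuclei count in treated wells divided by the count in vehicle wells. Counts were taken on 4× images of lung cancer cell lines in 1536-well plates, 5 days after pin-tool dosing the day after seeding with one drug alone or a fixed anchor-drug dose plus five library-drug doses (not always all listed) in √10 steps.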
# [2] = compound: C1=CC=C2C(=C1)C=CC(=C2SSC3=C(C=CC4=CC=CC=C43)O)O [IPA-3] + O=C(c1cc(Cc2n[nH]c(=O)c3ccccc23)ccc1F)N1CCN(C(=O)C2CC2)CC1 [Olaparib] (partner 8 µM)
# How it was run: as §1
# [3] = compound: Cc1ccc(-n2nc(C(C)(C)C)cc2NC(=O)Nc2ccc(OCCN3CCOCC3)c3ccccc23)cc1 [Doramapimod] + Cc1nc(Nc2ncc(C(=O)Nc3c(C)cccc3Cl)s2)cc(N2CCN(CCO)CC2)n1 [Dasatinib] (partner 0.075 µM)
# How it was run: as §1
# [4] = compound: Cc1ccc(-n2nc(C(C)(C)C)cc2NC(=O)Nc2ccc(OCCN3CCOCC3)c3ccccc23)cc1 [Doramapimod] + CS(=O)(=O)N1CCN(Cc2cc3nc(-c4cccc5[nH]ncc45)nc(N4CCOCC4)c3s2)CC1 [Pictilisib] (partner 1 µM)
# How it was run: as §1
Cell Line,relative viability ([1]; first compound 0.02 µM),relative viability ([1]; first compound 0.06325 µM),relative viability ([1]; first compound 0.2 µM),relative viability ([1]; first compound 0.6325 µM),relative viability ([1]; first compound 2 µM),relative viability ([2]; first compound 0.2 µM),relative viability ([2]; first compound 0.6325 µM),relative viability ([2]; first compound 2 µM),relative viability ([2]; first compound 6.325 µM),relative viability ([2]; first compound 20 µM),relative viability ([3]; first compound 0.02 µM),relative viability ([3]; first compound 0.06325 µM),relative viability ([3]; first compound 0.2 µM),relative viability ([3]; first compound 0.6325 µM),relative viability ([3]; first compound 2 µM),relative viability ([4]; first compound 0.02 µM),relative viability ([4]; first compound 0.06325 µM),relative viability ([4]; first compound 0.2 µM),relative viability ([4]; first compound 0.6325 µM),relative viability ([4]; first compound 2 µM)
LC-2-ad,0.826,0.916,0.874,0.988,0.84,0.811,0.738,0.699,0.751,0.683,0.464,0.514,0.638,0.561,0.391,0.303,0.429,0.605,0.537,0.267
LCLC-97TM1,0.323,0.328,0.289,0.168,0.304,0.397,0.337,0.475,0.265,0.359,0.837,0.87,0.768,0.699,0.591,0.195,0.162,0.177,0.18,0.206
LCLC-103H,0.908,0.78,0.795,0.978,0.762,0.765,0.693,0.78,0.681,0.789,0.451,0.488,0.374,0.448,0.44,0.57,0.633,0.64,0.789,0.521
LK-2,0.347,0.216,0.298,0.258,0.165,0.831,0.615,0.788,0.988,0.938,0.241,0.278,0.202,0.213,0.22,0.538,0.545,0.464,0.368,0.349
LOU-NH91,0.757,0.739,0.7,0.744,0.575,0.953,0.911,0.965,0.896,1.03,0.559,0.535,0.599,0.671,0.365,0.582,0.524,0.493,0.524,0.406
LU99A,0.349,0.37,0.339,0.339,0.326,0.304,0.268,0.291,0.277,0.249,0.488,0.498,0.413,0.612,0.552,0.348,0.303,0.311,0.307,0.263
LXF-289,1.07,1.16,1.14,1.1,1.12,1.22,1,1.09,1.07,1.23,0.229,0.216,0.207,0.252,0.247,0.776,0.76,0.695,0.716,0.662
NCI-H23,0.247,0.221,0.363,0.354,0.143,0.196,0.277,0.379,0.323,0.187,0.734,0.709,0.856,0.836,0.759,0.435,0.438,0.374,0.509,0.484
NCI-H322M,0.564,0.593,0.52,0.484,0.687,0.91,0.786,0.817,0.776,0.746,0.276,0.28,0.259,0.262,0.24,0.902,0.501,0.577,0.585,0.479
NCI-H358,0.486,0.522,0.438,0.363,0.38,0.649,0.514,0.879,0.505,0.564,0.164,0.156,0.162,0.204,0.171,0.388,0.329,0.373,0.373,0.321
NCI-H441,1.07,1.28,1.21,0.98,0.961,0.759,0.507,0.48,0.409,0.432,0.413,0.506,0.544,–,0.425,0.451,0.323,0.417,0.44,0.394
NCI-H460,0.658,0.702,0.726,0.805,0.531,0.575,0.393,0.454,0.418,0.447,0.445,0.499,0.488,0.535,0.437,0.374,0.383,0.266,0.548,0.291
NCI-H596,1.27,1.08,1.13,1.31,1.1,0.638,0.708,0.773,0.768,0.748,0.524,0.643,0.538,0.738,0.52,0.417,0.381,0.407,0.429,0.355
NCI-H647,0.602,0.616,0.461,0.485,0.454,0.725,0.496,0.59,0.196,0.0974,0.179,0.19,0.157,0.21,0.147,0.434,0.509,0.428,0.664,0.406
NCI-H650,0.88,1.11,0.941,1.16,1.02,0.473,0.391,0.387,0.379,0.381,0.517,0.535,0.571,0.586,0.431,0.887,0.818,0.984,0.982,0.859
NCI-H2342,0.416,0.513,0.49,0.486,0.485,0.468,0.4,0.559,0.46,0.473,0.277,0.309,0.319,0.333,0.278,–,–,–,–,–
SW 900,0.569,0.72,0.551,0.76,0.486,0.684,0.683,0.811,0.832,1.03,0.654,0.548,0.714,0.813,0.553,–,–,–,–,–
